From patent publication US7244557B2, “Method of screening modulators of Nod1 signaling” (Regents of the University of Michigan, priority 2003, dated 2007)

Key:
Type in all cases: cell-based
NOD1 = biological target: T1, NOD1 (Homo sapiens, UniProt Q9Y239); assay: NF-κB-dependent luciferase reporter assay, HEK293T cells expressing NOD1
T1 construct: expressed in transfected cells; host or cells: HEK293T
T1 sequence (Q9Y239 1-953): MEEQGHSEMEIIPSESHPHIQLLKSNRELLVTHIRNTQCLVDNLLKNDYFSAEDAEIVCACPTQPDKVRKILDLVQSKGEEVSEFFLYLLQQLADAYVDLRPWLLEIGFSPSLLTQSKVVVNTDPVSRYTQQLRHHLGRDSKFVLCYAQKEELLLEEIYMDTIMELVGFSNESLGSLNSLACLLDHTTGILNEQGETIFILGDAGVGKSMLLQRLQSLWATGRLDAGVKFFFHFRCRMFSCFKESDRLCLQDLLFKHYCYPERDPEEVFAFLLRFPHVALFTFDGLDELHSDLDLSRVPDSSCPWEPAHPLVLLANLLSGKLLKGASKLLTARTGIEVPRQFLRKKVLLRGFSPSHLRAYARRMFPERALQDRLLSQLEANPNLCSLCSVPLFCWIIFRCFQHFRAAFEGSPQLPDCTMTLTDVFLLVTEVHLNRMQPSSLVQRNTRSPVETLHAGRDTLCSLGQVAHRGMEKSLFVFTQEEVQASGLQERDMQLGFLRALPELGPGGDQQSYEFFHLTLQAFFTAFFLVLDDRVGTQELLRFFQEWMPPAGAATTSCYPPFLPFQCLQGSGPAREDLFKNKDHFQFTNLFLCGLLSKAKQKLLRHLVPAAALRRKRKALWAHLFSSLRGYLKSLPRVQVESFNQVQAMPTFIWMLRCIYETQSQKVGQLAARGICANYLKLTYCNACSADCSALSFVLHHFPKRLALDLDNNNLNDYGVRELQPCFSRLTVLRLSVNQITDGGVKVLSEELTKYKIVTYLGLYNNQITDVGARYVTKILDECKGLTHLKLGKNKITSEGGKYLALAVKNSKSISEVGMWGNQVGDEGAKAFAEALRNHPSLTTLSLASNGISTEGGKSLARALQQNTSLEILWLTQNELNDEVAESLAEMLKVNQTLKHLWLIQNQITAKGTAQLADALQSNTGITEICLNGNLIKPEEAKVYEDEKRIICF
Description: Reagents. LPS from S. typhimurium, intact and alkaline-detoxified LPS from E. coli O55:B5 as well as purified lipid A preparations of E. coli F583, MDP, DAP and dsRNA were obtained from Sigma-Aldrich (St. Louis, Mo.). PGN from S. aureus was from Fluka-Chemie (Buchs, Germany). Palmitoyl-Cys ((RS)-2,3-di(palmitoyloxy)-propyl)-Ala-Gly) (sBLP), was obtained from Bachem (Torrance, Calif.). The tetrameric form of the disaccharide dipeptide was described previously (Inohara et al., J. Biol. Chem. 278:5509 [2003]). iE-DAP and iQ-DAP, M3P and M4P were synthesized as described (Kitaura et al., J. Med. Chem. 25:335 [1982]) with small modification. Purification of PGN from B. subtilis 168 and C. flaccumfaciens with hydrolases, Cellosyl or recombinant AtlE (amidase domain) and the fractionation and purification of reduced B. subtilis PGN digested with Cellosyl were performed as previously described (Heilman et al., Mol. Microbiol. 24:1013 [1997]; Atrih et al., J. Bact. 181:3956 [1999]). Removal of proteins and reduction of LPS fraction. E. coli O55:B5 LPS (Sigma) was treated with proteinase K at 37° C. for 12 hr to digest contaminating proteins. To eliminate lipoproteins, LPS was subjected to modified phenol extraction with deoxycholate-containing phenol as described (Hirschfeld et al., J. Immunol. 165:618 [2000]). For reduction of carboxyl group in the LPS, the LPS was treated with 1-ethyl-3-(3-dimethylaminopropyl) carbodiimide and then reduced with NaBH4 as described (Taylor et al., Biochemistry 11:1383 [1972]). Preparation of E. coli extract. E. coli K-12 mutants were all based on the SØ864 genetic background (lacZ trp upp relA rpsL) (Neuhard and Thomassen, J. Bacteriol. 126:999). SØ874 carries a large chromosomal deletion removing the gene clusters for the biosynthesis of CA capsule and O-antigen. CLM5 is a derivative of SØ874 with a transposon insertion in the wecC gene that blocks the synthesis of ECA (Marolda et al., J. Bacteriol. 177:5539[1995]). FAM5 is a derivative of SØ874 carrying a deletion that eliminates the incorporation of heptose in the LPS core. Extracts were prepared from all of these E. coli K-12 strains and also from another E. coli K-12 strain, LCD27 YA21-6 (Obtained from Dr. Arisaka, Tokyo Institute of Technology). Bacteria were cultured overnight at 37° C. in Luria broth, killed by treatment with acetone followed by vacuum drying and finally resuspended in 10 mM HEPES. The extract was treated with 1M NaOH at 55° C. for 12 hr and neutralized with 1M HEPES (pH 7.4). The soluble fraction after centrifugation and filtration with 0.22 μm filter was applied to SUPEROSE 12 gel filtration column chromatography. Partial purification of NOD1-stimulatory molecules from E. coli and composition analyses. The amino acid composition of E. coli O55:B5 LPS was determined using AccQ·Tag amino acid analysis system (Waters, Milford, Mass.) after hydrolysis at 110° C. for 24 hr. For carbohydrate analysis, E coli K-12 YA21-6 (Ref 26) cultured overnight at 37° C. in L-broth were washed with TBS twice and incubated with TBS containing 1 mglml DNase I, RNase I and lysozyme for 37° C. for 2 hr. Acetone was added to the extracts at 50% final concentration and the insoluble fractions were washed with an excess of 75% and 100% acetone. After vacuum drying, the acetone extract was solublized with 1 M NaOH and incubated at 60° C. for 24 hr. The pH was adjusted to pH 5.0 with acetic acid and the soluble fraction was passed through SUPEROSE gel filtration column. SUPEROSE fractions with NOD1-stimulatory activity were diluted with 10 mM Tris-HCl (pH 8.8) and subjected to UnoQ column chromatography. The fractions were eluted with a linear gradient of 0–300 mM NaCl. The positive fractions were dialyzed against water and dried under vacuum. The monosaccharide composition of the fractions after TFA/methanol degradation was determined as previously described (Forsberg et al., J. Biol. Chem. 273:2747[1998]). Transfection and NF-κB Activation Assay. […]

TLR4/MD-2 = biological target: T2, TLR4/MD-2 (Homo sapiens, UniProt O00206+Q9Y6Y9); assay: NF-κB-dependent luciferase reporter assay, HEK293T cells expressing TLR4 with co-factor MD-2
T2 construct: expressed in transfected cells; host or cells: HEK293T
Description: (§1) Reagents. LPS from S. typhimurium, intact and alkaline-detoxified LPS from E. coli O55:B5 as well as purified lipid A preparations of E. coli F583, MDP, DAP and dsRNA were obtained from Sigma-Aldrich (St. Louis, Mo.). PGN from S. aureus was from Fluka-Chemie (Buchs, Germany). Palmitoyl-Cys ((RS)-2,3-di(palmitoyloxy)-propyl)-Ala-Gly) (sBLP), was obtained from Bachem (Torrance, Calif.). The tetrameric form of the disaccharide dipeptide was described previously (Inohara et al., J. Biol. Chem. 278:5509 [2003]). iE-DAP and iQ-DAP, M3P and M4P were synthesized as described (Kitaura et al., J. Med. Chem. 25:335 [1982]) with small modification. Purification of PGN from B. subtilis 168 and C. flaccumfaciens with hydrolases, Cellosyl or recombinant AtlE (amidase domain) and the fractionation and purification of reduced B. subtilis PGN digested with Cellosyl were performed as previously described (Heilman et al., Mol. Microbiol. 24:1013 [1997]; Atrih et al., J. Bact. 181:3956 [1999]). Removal of proteins and reduction of LPS fraction. […] The amino acid composition of E. coli O55:B5 LPS was determined using AccQ·Tag amino acid analysis system (Waters, Milford, Mass.) after hydrolysis at 110° C. for 24 hr. […] The monosaccharide composition of the fractions after TFA/methanol degradation was determined as previously described (Forsberg et al., J. Biol. Chem. 273:2747[1998]). […]

NOD2 = biological target: T3, NOD2 (Homo sapiens, UniProt Q9HC29); assay: NF-κB-dependent luciferase reporter assay, HEK293T cells expressing NOD2
T3 construct: expressed in transfected cells; host or cells: HEK293T
Description: as §1

T2 sequence (O00206 24-839, species assumed): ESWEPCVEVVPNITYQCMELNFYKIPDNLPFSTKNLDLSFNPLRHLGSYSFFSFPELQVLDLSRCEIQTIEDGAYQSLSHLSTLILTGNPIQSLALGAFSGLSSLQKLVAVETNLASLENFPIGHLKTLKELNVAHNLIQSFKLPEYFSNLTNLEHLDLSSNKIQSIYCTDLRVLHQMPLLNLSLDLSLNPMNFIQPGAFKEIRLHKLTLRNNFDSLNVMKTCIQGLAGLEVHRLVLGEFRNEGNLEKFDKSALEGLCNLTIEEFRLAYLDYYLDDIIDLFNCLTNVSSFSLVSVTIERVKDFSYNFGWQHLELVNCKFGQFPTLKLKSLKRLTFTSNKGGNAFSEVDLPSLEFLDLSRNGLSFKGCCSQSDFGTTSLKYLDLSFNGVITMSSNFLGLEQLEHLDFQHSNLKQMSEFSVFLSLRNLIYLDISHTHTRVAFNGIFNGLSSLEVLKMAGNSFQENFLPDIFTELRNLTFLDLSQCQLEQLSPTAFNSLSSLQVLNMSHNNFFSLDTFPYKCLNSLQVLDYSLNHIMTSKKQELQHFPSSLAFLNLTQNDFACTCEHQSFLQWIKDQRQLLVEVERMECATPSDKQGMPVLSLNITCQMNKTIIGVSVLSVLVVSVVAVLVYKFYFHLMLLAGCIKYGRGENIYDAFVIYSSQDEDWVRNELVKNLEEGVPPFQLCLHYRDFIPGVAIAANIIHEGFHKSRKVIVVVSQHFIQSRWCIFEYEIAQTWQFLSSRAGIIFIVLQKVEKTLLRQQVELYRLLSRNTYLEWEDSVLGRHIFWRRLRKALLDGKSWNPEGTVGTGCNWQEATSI
T2 sequence (Q9Y6Y9 19-160, species assumed): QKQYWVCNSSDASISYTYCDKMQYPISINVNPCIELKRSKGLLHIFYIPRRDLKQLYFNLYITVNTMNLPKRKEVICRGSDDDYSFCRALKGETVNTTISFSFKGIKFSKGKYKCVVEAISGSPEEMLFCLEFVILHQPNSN
T3 sequence (Q9HC29 whole entry): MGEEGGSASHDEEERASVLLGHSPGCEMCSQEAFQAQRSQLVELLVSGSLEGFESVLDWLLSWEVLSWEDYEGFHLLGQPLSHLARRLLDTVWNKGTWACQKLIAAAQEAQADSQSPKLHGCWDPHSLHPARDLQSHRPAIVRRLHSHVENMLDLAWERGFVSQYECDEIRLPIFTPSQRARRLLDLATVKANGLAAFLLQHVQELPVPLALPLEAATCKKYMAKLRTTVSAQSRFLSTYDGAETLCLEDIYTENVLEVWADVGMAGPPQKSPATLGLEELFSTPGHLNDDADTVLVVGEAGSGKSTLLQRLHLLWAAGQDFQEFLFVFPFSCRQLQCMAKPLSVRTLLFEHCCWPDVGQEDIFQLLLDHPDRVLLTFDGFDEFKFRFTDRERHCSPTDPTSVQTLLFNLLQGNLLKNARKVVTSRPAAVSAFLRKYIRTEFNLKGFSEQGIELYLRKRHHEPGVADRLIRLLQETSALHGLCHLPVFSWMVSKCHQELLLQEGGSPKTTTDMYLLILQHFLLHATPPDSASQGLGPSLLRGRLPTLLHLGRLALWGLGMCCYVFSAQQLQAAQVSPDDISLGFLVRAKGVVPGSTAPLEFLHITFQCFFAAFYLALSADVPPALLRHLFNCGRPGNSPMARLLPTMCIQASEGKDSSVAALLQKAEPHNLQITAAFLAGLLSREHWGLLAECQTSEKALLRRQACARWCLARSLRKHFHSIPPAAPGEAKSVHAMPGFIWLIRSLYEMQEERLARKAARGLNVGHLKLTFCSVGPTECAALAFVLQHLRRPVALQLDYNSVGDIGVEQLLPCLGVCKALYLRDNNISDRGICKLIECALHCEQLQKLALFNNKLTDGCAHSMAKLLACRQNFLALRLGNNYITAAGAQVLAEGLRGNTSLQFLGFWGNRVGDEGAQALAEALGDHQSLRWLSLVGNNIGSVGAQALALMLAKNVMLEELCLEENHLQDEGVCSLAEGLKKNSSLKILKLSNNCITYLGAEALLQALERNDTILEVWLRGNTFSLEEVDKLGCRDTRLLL

Molecule	NOD1-dependent NF-κB activation (NOD1 stimulation) (NOD1)	TLR4/MD-2-dependent NF-κB activation (TLR4/MD-2)	NOD2-dependent NF-κB activation (NOD2)
N-acetylglucosamine(GlcNAc)-N-acetyl-Muramicitol-L-Ala-γ-D-Glu-meso-DAP [GM3p]	stimulated NOD1 in a dose-dependent manner	–	–
N[C@H](CCC[C@H](N)C(=O)O)C(=O)O [DAP, diaminopimelic acid]	unable to stimulate NOD1	–	–

Now from value to molecule:

NOD1-dependent NF-κB activation (NOD1 stimulation) (NOD1)	TLR4/MD-2-dependent NF-κB activation (TLR4/MD-2)	NOD2-dependent NF-κB activation (NOD2)	Molecule
failed to stimulate NOD1	–	–	MurNAc-L-Ala-γ-D-Gln-L-Lys-D-Ala [M4P]
not NOD1 and NOD2	responded	not NOD1 and NOD2	lipid A
failed to stimulate NOD1	–	–	MurNAc-L-Ala-γ-D-Gln-L-Lys [M3P]
